In patent EP0142057A2, “Thiazoloquinazoline derivatives, their preparation and pharmaceutical compositions containing same” (F. HOFFMANN-LA ROCHE AG, priority 1983, dated 1985):
Counter-ions that a name gives are not always drawn. Blank lines part the entries; values can stand above or below the molecule they belong to.

Assays:
TXA2 synthase = biological target: T1, TXA2 synthase (Homo sapiens, UniProt P24557); test: Thromboxane synthase inhibition, in vitro; type: biochemical; conditions: at 10^-7M; microsomal fractions from human platelets; read-out: TXA2Synthase Inhibition (% at 10^-7M)
T1 construct: using microsomal fractions from human platelets as enzyme source; from tissue; host or cells: human platelets (microsomal fraction)
T1 sequence (P24557 1-533): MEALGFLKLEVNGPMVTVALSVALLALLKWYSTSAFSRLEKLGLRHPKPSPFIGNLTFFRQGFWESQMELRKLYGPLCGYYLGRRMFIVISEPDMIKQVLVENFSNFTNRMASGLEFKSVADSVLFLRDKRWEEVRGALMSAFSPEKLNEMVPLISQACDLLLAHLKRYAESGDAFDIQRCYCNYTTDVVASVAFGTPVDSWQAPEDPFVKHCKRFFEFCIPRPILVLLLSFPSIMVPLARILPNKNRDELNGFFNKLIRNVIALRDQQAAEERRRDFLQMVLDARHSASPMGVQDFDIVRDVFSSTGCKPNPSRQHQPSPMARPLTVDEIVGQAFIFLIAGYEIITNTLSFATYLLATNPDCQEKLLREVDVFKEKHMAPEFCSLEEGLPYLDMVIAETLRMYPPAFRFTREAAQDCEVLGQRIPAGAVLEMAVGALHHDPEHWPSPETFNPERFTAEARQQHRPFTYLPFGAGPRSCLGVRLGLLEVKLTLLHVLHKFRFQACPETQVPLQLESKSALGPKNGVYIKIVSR
Experimental: TXA2 synthase activity is measured by following the conversion of ^14C-prostaglandin endoperoxide (PGH2) to ^14C-thromboxane A2 (TXA2) using microsomal fractions from human platelets as enzyme source. In the aqueous incubation medium, the TXA2 decomposes rapidly into TXB2. The amount of TXA2 synthase is adjusted so that under the conditions of the assay approximately 80-90% of the substrate, PGH2, is converted to product in control tubes. To prepare ^14C-PGH2, ^14C-AA (50-60 mCi/mmole: Rose Chem.) is incubated with sheep seminal vesicular gland microsomes for 1.5 minutes at 37°C and then the ^14C-PGH2 is extracted with diethylether, purified on columns of Sephadex LH-20 or silicic acid, and stored in acetone at -70°C. Incubations are done as follows. Sufficient ^14C-PGH2 to yield a final substrate concentration of 10 µM (30,000 cpm) is added to the incubation tubes and then the acetone is removed under nitrogen. The tubes are placed in an ice bath and then 215 1 of ice cold phosphate buffered saline, 10 1 of ethanol (control) or of test drug in ethanol, and 25 1 of the microsomal suspension are added with mixing in that order as rapidly as possible. The tubes are incubated at 22°C for 2 minutes, the reaction is stopped and then the radioactive products and the uncoverted PGH2 are extracted and analyzed by thin layer chromatography. […] The amount of ^14C-PGH2 converted to products was used as a measure of TXA2 synthase activity. Inhibitors were tested initially at a final concentration of 100 µM. Results obtained with representative compounds of the present invention in this assay are summarized hereafter in Table I.

[1] = test system: Guinea Pig Bronchoconstriction; test: Guinea pig bronchoconstriction, in vivo (leukotriene E4 challenge); parameters: species or system guinea pigs; conditions: for Guinea Pig Broncho-constriction % Inhibition (10 mg/kg i.v.): Table II; for Guinea Pig Broncho-constriction % Inhibition (10 mg/kg i.v.) / inhibition: leukotriene E4 challenge; for inhibition: 10 mg/kg, i.v.; for oral activity: orally 100 mg/kg, 2 hours prior to challenge with leukotriene E4
Experimental: Male guinea pigs (Hostley strain) weighing 300 to 450 grams are anesthetized with urethane (2 g/kg) intraperitoneally and a polyethylene cannula is inserted into the jugular vein for intravenous drug administration. Tracheal pressure is recorded from a cannula inserted in the trachea and connected to a Statham pressure transducer. Respiration is paralyzed with succinyl choline (1.2 mg/kg, i.v.) and the animals are mechanically respirated (Howard rodent respirator) at 40 breaths/minute and 2.5 ml tidal volume. Two minutes thereafter, propranolol (0.1 mg/kg, i.v.) is administered. Five minutes later, the animals are pretreated intravenously for 30 seconds (at 10 mg/kg) with test drug or control vehicle. The animals are subsequently challenged with a maximally constrictory dose of leukotriene E4 also administered intravenously. The change (cm H20) between pre and peak ventilatory pressure readings is averaged for three control animals and five drug treated animals. The percent inhibition is calculated from the following formula: [formula]
For determination of oral activity spontaneously breathing animals are pretreated orally with drugs (100 mg/kg) for 2 hours (at 100 mg/kg) prior to challenge with leukotriene E4. […] When tested orally in this assay the two compounds of the invention were active. Results obtained with representative compounds of the present invention in this assay are summarized hereafter in Table II.

[2] = test system: vascular permeability in rat skin; test: Rat skin permeability, in vivo (LTE4-induced skin wheal); parameters: species or system rats; conditions: for Rat Skin Permeability % Inhibition (10mg/kg iv): Table II, LTE4 wheal; for reduction in the skin wheal size: 10 mg/kg i.v.
Experimental: In this model the ability of LTE4 to increase vascular permeability in rat skin was utilized. Anesthetized rats, pretreated for 30 minutes with an antihistamine pyrilamine maleate, 50 mg/kg i.p. and a serotonin antagonist, methyl- […] maleate (4 mg/kg i.p.), were injected intradermally with a standard dose of LTE4 which gave a maximum wheal (in 0.05 ml saline). After introduction of test drug (at 10 mg/kg i.v.) the animals were immediately treated intravenously with Evans blue dye i.v. (0.5%) in the tail vein resulting in the formation of a skin wheal. Thirty minutes later the animals were sacrificed and the skin wheal size was measured. The average response in 5 animals (4 intradermal injections per animal) treated with test compound was compared to that obtained in a similar group of control animals to determine the percent inhibition by the drug.

[3] = test system: Rat Passive Cutaneous Anaphylaxis; test: Passive cutaneous anaphylaxis (PCA) assay; type: in vivo, rats; conditions: for ED50: Rattus norvegicus, po, doses administered orally, read-out: Rat PCA Test ID50
Experimental: Male Sprague-Dawley rats obtained from Charles River Breeding Laboratories were used in the PCA assay. Two methods were used to prepare serum IgE antibody which is specific for egg albumin. In the first method homocytotropic antibody was obtained by injecting 180 to 200 g rats with 1.0 mg of egg albumin (Difco Laboratories, Detroit, Michigan) intramuscularly and 6.4 x 10^10 organisms of Bordetella pertussis vaccine (Eli Lilly and Co., Indiana- polis, Ind.) intraperitoneally. Serum collected from each animal 18-20 days after sensitization was pooled, separated into 1 ml aliquots, and kept frozen until further use. In the second method, rats weighing 150-200 g were immunized by the intraperitoneal injection of 0.5 ml of Bordetella pertussis vaccine (Cannaught Laboratories, Willowdale, Toronto, Canada, 20 optical units/ml) and 100 μg of egg albumin (Nutritional Biochemicals Corp., Cleveland. Ohio). Sixteen days later, Nipostrongylus brasi- […] (3000 larvae/0.1 ml) was administered subcutaneously, and on the 21st day, 10 μg of egg albumin in 0.5 ml of normal saline was administered intraperitoneally. On the 30th day, blood samples were collected by heart puncture; the serum was separated by centrifugation and refrigerated overnight at 5°C. After a 24 hour period, the samples were assayed for antibody activity by the passive cutaneous anaphylaxis method. Those serum samples which produced an average wheal diameter of 3 mm or greater following an intradermal injection of 0.05 ml of a 1:50 dilution of serum in normal saline were pooled, divided into aliquots, and kept frozen until further use. […] The passive cutaneous anaphylaxis assay was carried out in rats weighing 190-220 g in a manner similar to that of Goose and Blair (J. Goose and A.M.J.N. Blair, Immunology, 16, 749 [1969]). Rat IgE antiovalbumin in serum was prepared as described above. The IgE antiserum was titered with normal saline so that injections of 0.05 ml produced skin wheal diameters which averaged 7 to 10 mm. After a 24 hour sensitization period, 1 ml of an aqueous solution containing a mixture of 8 mg of egg albumin (Nutritional Biochemical Corp.. Cleveland, Ohio) and 5 mg of Evans blue dye ([…] Chemical Co., Inc., Harriman, N.Y.) was administered intravenously to each rat. Forty minutes after challenge, each animal was sacrificed by cervical dislocation, and the dorsal skin was removed for examination. The long and short axes of the blued area were measured on the inner surface of the skin with a metric vernier caliper (VWR Scientific Division of Univar, Rochester, N.Y.), and the average diameter was determined for each reaction. […] The procedure was usually conducted on five animals in the control and each of the treatment groups. Statistical analysis of the test results was conduced by the Student's t test of control vs. various treatments. The ID50 and 95% limits were determined by a modification of the Berkson minimum logic chi square method (J. Berkson, J. Am. Stat. Assoc., 48, 565 [1953]).

[4] = test system: vascular permeability in rat skin; test: Rat skin permeability, in vivo (LTE4-induced skin wheal); parameters: species or system rats; conditions: for oral activity: tested orally

- inhibition at 0.1 µM (TXA2 synthase): 36%
SMILES: CC(C)c1ccc2nc3sc(C(=O)NCCCCCCc4cccnc4)cn3c(=O)c2c1

SMILES: CC(C)c1ccc2nc3sc(C(=O)N(C)CCCCc4cccnc4)cn3c(=O)c2c1
- Guinea Pig Broncho-constriction % Inhibition (10 mg/kg i.v.) [1]: Inactive
- Rat Skin Permeability % Inhibition (10mg/kg iv) [2]: 72%

- inhibition at 0.1 µM (TXA2 synthase): 30%
SMILES: CC(C)c1ccc2nc3sc(C(=O)NCCCCOc4cccnc4)cn3c(=O)c2c1

SMILES: CCC(C)c1ccc2nc3sc(C(=O)NCCN(CC)CC)cn3c(=O)c2c1 (stereo not shown)
- Rat PCA Test (% Inhibition) 16 mg/kg ip [3]: 21%

SMILES: CCN(CC)CCOC(=O)c1cn2c(=O)c3cc(OC)ccc3nc2s1
- Rat PCA Test (% Inhibition) 16 mg/kg ip [3]: 100%
- Rat PCA Test (% Inhibition) 32 mg/kg po [3]: 100%
- ED50 [3]: 1.31 mg/kg

SMILES: CCN(CC)CCNC(=O)c1cn2c(=O)c3cc(C(C)C)ccc3nc2s1
- Rat PCA Test (% Inhibition) 32 mg/kg po [3]: 50%

SMILES: CCN(CC)CCNC(=O)c1cn2c(=O)c3cc(CC(C)C)ccc3nc2s1
- Rat PCA Test (% Inhibition) 16 mg/kg ip [3]: 31%

SMILES: CCN(CC)CCNC(=O)c1cn2c(=O)c3cc(C(C)C)cc(C(C)C)c3nc2s1 [7,9-Bis(1-methylethyl)-N-[2-(diethylamino)ethyl] -5-oxo-5H--thiazolo[2,3-b]quinazoline-2-carboxamide hydrochloride]
- Rat PCA Test (% Inhibition) 16 mg/kg ip [3]: 31%
- Rat PCA Test (% Inhibition) 32 mg/kg po [3]: 27%

SMILES: CCN(CC)CCOC(=O)c1cn2c(=O)c3cc(C(C)C)ccc3nc2s1 [7-(1-Methylethyl)-5-oxo-5H-thiazolo[2,3-b]quinazoline-2-carboxylic acid(2-diethylaminoethyl) ester hydrochloride]
- Rat PCA Test (% Inhibition) 16 mg/kg ip [3]: 100%
- Rat PCA Test (% Inhibition) 32 mg/kg po [3]: 100%
- ED50 [3]: 0.45 mg/kg

SMILES: CCCc1c(OCC(O)COc2ccc3c(=O)cc(C(=O)O)oc3c2CCC)ccc(C(C)=O)c1O (stereo not drawn) [7-[3-(4-acetyl-3-hydroxy-2-propylphenoxy) -2-hydroxypropoxy]-4-oxo-8-propyl-4H-l-benzopyran-2-carboxylic acid, reference compound]
- inhibition [1]: 98%
- oral activity [1]: inactive
- reduction in the skin wheal size [2]: 88%
- oral activity [4]: inactive

SMILES: CC(C)c1ccc2nc3sc(C(=O)NCCCCc4cccnc4)cn3c(=O)c2c1 [Example 3, 7-(1-Methylethyl)-5-oxo-N-[4-(3-pyridinyl)butyl]-5H-thiazolo[2,3-b]quinazoline-2-carboxamide]
- inhibition [1]: 68%
- Guinea Pig Broncho-constriction % Inhibition (10 mg/kg i.v.) [1]: 68%
- oral activity [1]: active
- reduction in the skin wheal size [2]: 35%
- Rat Skin Permeability % Inhibition (10mg/kg iv) [2]: 35%
- oral activity [4]: active

SMILES: CC(C)c1ccc2nc3sc(C(=O)NCCCCn4ccnc4)cn3c(=O)c2c1 [Example 6, N-[4-(1H-Imidazol-1-yl)butyl]-7-(1-methylethyl)-5-oxo-5H-thiazolo[2,3-b]quinazoline-2-carboxamide dihydrochloride 0.45 molar hydrate]
- inhibition [1]: 85%
- ED50 ([1]; Cavia porcellus, po, read-out: Guinea Pig Broncho-constriction ID50): 51 mg/kg
- Guinea Pig Broncho-constriction % Inhibition (10 mg/kg i.v.) [1]: 85%
- oral activity [1]: active
- reduction in the skin wheal size [2]: 61%
- Rat Skin Permeability % Inhibition (10mg/kg iv) [2]: 61%
- Rat Skin Permeability ID50 ([4]; iv): 10 mg/kg
- Rat Skin Permeability ID50 ([4]; po): 55 mg/kg
- oral activity [4]: active

SMILES: CCN(CC)CCOC(=O)c1cn2c(=O)c3cc(SC)ccc3nc2s1.Cl [Example 17, 7-(Methylthio)-5-oxo-5H-thiazolo[2,3-b]quinazoline-2-carboxylic acid (2-diethylaminoethyl) ester hydrochloride]
- Rat PCA Test (% Inhibition) 16 mg/kg ip [3]: 52%
- Rat PCA Test (% Inhibition) 32 mg/kg po [3]: 100%
- ED50 [3]: 2.85 mg/kg

- inhibition at 0.1 µM (TXA2 synthase): 73%
SMILES: CC(C)c1ccc2nc3sc(C(=O)NCCCCc4cccnc4)cn3c(=O)c2c1 [the 1st table, row 4, 7-(1-Methylethyl)-5-oxo-N-[4-(3-pyridinyl)butyl]-5H-thiazolo[2,3-b]quinazoline-2-carboxamide]

- inhibition at 0.1 µM (TXA2 synthase): 63%
SMILES: CC(C)c1cc(C(C)C)c2nc3sc(C(=O)NCCCCc4cccnc4)cn3c(=O)c2c1 [the 1st table, row 5, 7,9-bis(1-methylethyl)-5-oxo-N-[4-(3-pyridinyl)butyl]-5H-thiazolo[2,3-b]quinazoline-2-carboxamide]

SMILES: CC(C)c1cc(C(C)C)c2nc3sc(C(=O)NCCCCc4cccnc4)cn3c(=O)c2c1 [the 2nd table, row 8, 7,9-bis(1-methylethyl)-5-oxo-N-[4-(3-pyridinyl)butyl]-5H-thiazolo[2,3-b]quinazoline-2-carboxamide]
- Rat Skin Permeability % Inhibition (10mg/kg iv) [2]: 38%
